{
  "source": "PubChem BioAssay AID1259407",
  "about": "(Chemical Carcinogenesis Research Information System (CCRIS), 2018)",
  "test_system": "CCRIS mutagenicity, Ames/micronucleus/aberration tests",
  "assay": "CCRIS mutagenicity studies",
  "key": {"[1]": {"conditions": "Test System: AMES SALMONELLA TYPHIMURIUM, Strain/Indicator: TA98, Metabolic Activation: NONE, Method: STANDARD PLATE"}, "[2]": {"conditions": "Test System: AMES SALMONELLA TYPHIMURIUM, Strain/Indicator: TA98, Metabolic Activation: RAT, LIVER, S-9, AROCLOR 1254, Method: STANDARD PLATE"}, "[3]": {"conditions": "Test System: AMES SALMONELLA TYPHIMURIUM, Strain/Indicator: TA100, Metabolic Activation: NONE, Method: STANDARD PLATE"}, "[4]": {"conditions": "Test System: AMES SALMONELLA TYPHIMURIUM, Strain/Indicator: TA100, Metabolic Activation: RAT, LIVER, S-9, AROCLOR 1254, Method: STANDARD PLATE"}},
  "note": "Calls of active or inactive are those of the source. The rule behind the calls is not given here.",
  "data": [
    {"compound": "Cn1c(N=[N+]=[N-])nc2ncc(-c3ccccc3)cc21", "values": [
      {"measurement": "mutagenic call", "setting": "Test System: AMES SALMONELLA TYPHIMURIUM, Strain/Indicator: TA98(1,8-DNP6), Metabolic Activation: NONE, Method: PREINCUBATION", "value": "active; positive"},
      {"measurement": "mutagenic call", "setting": "Test System: AMES SALMONELLA TYPHIMURIUM, Strain/Indicator: TA98(NR), Metabolic Activation: NONE, Method: PREINCUBATION", "value": "active; positive"},
      {"measurement": "mutagenic call", "setting": "Test System: AMES SALMONELLA TYPHIMURIUM, Strain/Indicator: TA98, Metabolic Activation: NONE, Method: PREINCUBATION", "value": "active; positive"},
      {"measurement": "mutagenic call", "setting": "Test System: AMES SALMONELLA TYPHIMURIUM, Strain/Indicator: YG1024, Metabolic Activation: NONE, Method: PREINCUBATION", "value": "active; positive"}
    ]},
    {"compound": "COC(=O)Nc1nc2ccc(C(=O)c3ccc(F)cc3)cc2[nH]1", "values": [
      {"measurement": "mutagenic call", "setting": "[1]", "value": "inactive; negative"},
      {"measurement": "mutagenic call", "setting": "[2]", "value": "inactive; negative"},
      {"measurement": "mutagenic call", "setting": "[3]", "value": "inactive; negative"},
      {"measurement": "mutagenic call", "setting": "[4]", "value": "inactive; negative"}
    ]},
    {"compound": "Fc1ccc2cccnc2c1F", "values": [
      {"measurement": "mutagenic call", "setting": "Test System: AMES SALMONELLA TYPHIMURIUM, Strain/Indicator: TA100, Metabolic Activation: RAT LIVER S-9, PHENOBARBITAL AND 5,6-BENZOFLAVONE, Method: PREINCUBATION", "value": "active; positive"}
    ]},
    {"compound": "COc1cc(O)c2c(O)c3c(=O)oc(C)cc3c(OC)c2c1", "values": [
      {"measurement": "mutagenic call", "setting": "Test System: AMES SALMONELLA TYPHIMURIUM, Strain/Indicator: TA98, Metabolic Activation: MOUSE, LIVER, S-9, AROCLOR 1254, Method: STANDARD PLATE", "value": "active; positive"},
      {"measurement": "mutagenic call", "setting": "[1]", "value": "active; positive"},
      {"measurement": "mutagenic call", "setting": "Test System: AMES SALMONELLA TYPHIMURIUM, Strain/Indicator: TA100, Metabolic Activation: MOUSE, LIVER, S-9, AROCLOR 1254, Method: STANDARD PLATE", "value": "active; positive"},
      {"measurement": "mutagenic call", "setting": "[3]", "value": "active; positive"},
      {"measurement": "mutagenic call", "setting": "Test System: AMES SALMONELLA TYPHIMURIUM, Strain/Indicator: TA102, Metabolic Activation: MOUSE, LIVER, S-9, AROCLOR 1254, Method: STANDARD PLATE", "value": "active; positive"},
      {"measurement": "mutagenic call", "setting": "Test System: AMES SALMONELLA TYPHIMURIUM, Strain/Indicator: TA102, Metabolic Activation: NONE, Method: STANDARD PLATE", "value": "active; positive"}
    ]},
    {"compound": "O=C1c2ccccc2-c2ccc([N+](=O)[O-])c3cccc1c23", "values": [
      {"measurement": "mutagenic call", "setting": "End Point: IN VITRO MICRONUCLEUS, Test System: HUMAN B-LYMPHOBLASTOID CELLS (MCL-5), Metabolic Activation: NONE", "value": "active; positive"},
      {"measurement": "mutagenic call", "setting": "End Point: In vivo micronucleus, Test System: lacZ mutant frequency in liver, lung, and bone marrow cells, Species: Mouse, Strain/Sex: Big Blue (BALB/c x DBA2)/Male, Route: Oral", "value": "active; positive in liver and bone marrow"},
      {"measurement": "mutagenic call", "setting": "Test System: Human lymphoblastoid cells, Strain/Indicator: MCL-5 (HPRT)/6-Thioguanine, Metabolic Activation: None, Method: Well plates", "value": "active; positive"},
      {"measurement": "mutagenic call", "setting": "Test System: Human lymphoblastoid cells, Strain/Indicator: MCL-5 (tk+/tk-)/Trifluorothymidine, Metabolic Activation: None, Method: Well plates", "value": "active; positive"},
      {"measurement": "mutagenic call", "setting": "Test System: Human lymphoblastoid cells, Strain/Indicator: h1A1v2 (HPRT)/6-Thioguanine, Metabolic Activation: None, Method: Well plates", "value": "active; positive"},
      {"measurement": "mutagenic call", "setting": "Test System: Human lymphoblastoid cells, Strain/Indicator: h1A1v2 (tk+/tk-)/Trifluorothymidine, Metabolic Activation: None, Method: Well plates", "value": "active; positive"}
    ]},
    {"compound": "CCCC(=O)Nc1ccc(OCC(O)CNC(C)C)c(C(C)=O)c1", "note": "(centres undefined)", "values": [
      {"measurement": "mutagenic call", "setting": "Test System: AMES SALMONELLA TYPHIMURIUM, Strain/Indicator: TA98, Metabolic Activation: NONE", "value": "inactive; negative"},
      {"measurement": "mutagenic call", "setting": "[1]", "value": "inactive; negative"},
      {"measurement": "mutagenic call", "setting": "Test System: AMES SALMONELLA TYPHIMURIUM, Strain/Indicator: TA98, Metabolic Activation: RAT, LIVER, S-9, AROCLOR 1254", "value": "inactive; negative"},
      {"measurement": "mutagenic call", "setting": "[2]", "value": "inactive; negative"},
      {"measurement": "mutagenic call", "setting": "Test System: AMES SALMONELLA TYPHIMURIUM, Strain/Indicator: TA100, Metabolic Activation: NONE", "value": "inactive; negative"},
      {"measurement": "mutagenic call", "setting": "[3]", "value": "inactive; negative"},
      {"measurement": "mutagenic call", "setting": "Test System: AMES SALMONELLA TYPHIMURIUM, Strain/Indicator: TA100, Metabolic Activation: RAT, LIVER, S-9, AROCLOR 1254", "value": "inactive; negative"},
      {"measurement": "mutagenic call", "setting": "[4]", "value": "inactive; negative"},
      {"measurement": "mutagenic call", "setting": "Test System: AMES SALMONELLA TYPHIMURIUM, Strain/Indicator: TA1535, Metabolic Activation: NONE", "value": "inactive; negative"},
      {"measurement": "mutagenic call", "setting": "Test System: AMES SALMONELLA TYPHIMURIUM, Strain/Indicator: TA1535, Metabolic Activation: RAT, LIVER, S-9, AROCLOR 1254", "value": "inactive; negative"},
      {"measurement": "mutagenic call", "setting": "Test System: AMES SALMONELLA TYPHIMURIUM, Strain/Indicator: TA1537, Metabolic Activation: NONE", "value": "inactive; negative"},
      {"measurement": "mutagenic call", "setting": "Test System: AMES SALMONELLA TYPHIMURIUM, Strain/Indicator: TA1537, Metabolic Activation: RAT, LIVER, S-9, AROCLOR 1254", "value": "inactive; negative"}
    ]},
    {"compound": "CC(=O)O/C=C/Cc1ccc2c(c1)OCO2", "values": [
      {"measurement": "mutagenic call", "setting": "Test System: UDS HUMAN FIBROBLASTS, Strain/Indicator: THY INCORP (NON-S-PHASE), Metabolic Activation: NONE, Method: AUTORADIOGRAPHY", "value": "active; positive"}
    ]}
  ]
}
